These results are taken from patent US11021435B2, “Serotonin receptor-targeting compounds and methods” (priority 2014, dated 2021).

The target of test [1] is T1, human 5-HT7 receptors (5-HT7a) (Homo sapiens, UniProt P34969).
T1 construct: expressed in transfected cells
Nature of the test: Radioligand competition binding ([3H]5-CT), HEK293 cells stably expressing human 5-HT7 receptors. The following applies: for Ki: human 5-HT7a, mean (SEM), at least three independent experiments, read-out: Affinity Ki 5-HT7. An excerpt:
FIGS. 4A-4C show the effects of 5-FPT are stereospecific. […] Data are expressed as the mean±SEM.
(In general: Loss of bound radioactivity is the signal in a displacement assay; it reports binding, not function.)

In a further test the target is T2, adrenergic α1A receptor (Homo sapiens, UniProt P35348).
T2 construct: expressed in transfected cells; host or cells: HEK293, transient
T2 sequence (P35348 1-466): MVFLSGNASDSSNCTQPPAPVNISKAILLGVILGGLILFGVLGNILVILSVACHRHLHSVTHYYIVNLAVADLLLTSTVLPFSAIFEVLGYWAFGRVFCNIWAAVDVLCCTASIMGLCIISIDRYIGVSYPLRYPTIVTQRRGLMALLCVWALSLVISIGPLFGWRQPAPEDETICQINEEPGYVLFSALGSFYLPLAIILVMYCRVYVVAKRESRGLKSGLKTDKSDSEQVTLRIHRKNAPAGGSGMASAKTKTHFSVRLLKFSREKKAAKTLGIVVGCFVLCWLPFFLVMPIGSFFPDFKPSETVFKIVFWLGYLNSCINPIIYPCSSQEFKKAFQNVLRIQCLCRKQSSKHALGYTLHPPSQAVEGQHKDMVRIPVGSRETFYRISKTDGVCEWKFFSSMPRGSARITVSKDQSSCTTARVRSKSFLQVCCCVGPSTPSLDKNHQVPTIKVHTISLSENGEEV
In words: Off-target binding affinity, adrenergic α1A.

For the next test, the target named is T3, adrenergic α1B receptor (Homo sapiens, UniProt P35368).
T3 construct: expressed in transfected cells; host or cells: HEK293, transient
T3 sequence (P35368 1-520): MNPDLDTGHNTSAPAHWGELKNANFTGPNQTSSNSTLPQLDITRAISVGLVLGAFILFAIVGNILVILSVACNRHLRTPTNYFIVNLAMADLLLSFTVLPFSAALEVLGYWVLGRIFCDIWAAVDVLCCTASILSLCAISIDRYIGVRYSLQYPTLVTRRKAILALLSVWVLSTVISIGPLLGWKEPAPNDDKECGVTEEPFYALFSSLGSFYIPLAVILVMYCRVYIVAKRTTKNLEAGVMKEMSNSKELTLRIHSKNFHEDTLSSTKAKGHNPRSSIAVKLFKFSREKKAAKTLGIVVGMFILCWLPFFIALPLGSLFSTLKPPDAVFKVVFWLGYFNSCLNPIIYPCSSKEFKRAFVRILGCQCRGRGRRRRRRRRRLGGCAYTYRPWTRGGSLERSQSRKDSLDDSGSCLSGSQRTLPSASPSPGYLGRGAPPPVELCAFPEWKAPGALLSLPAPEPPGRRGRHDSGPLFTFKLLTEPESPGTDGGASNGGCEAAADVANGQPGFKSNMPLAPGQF
Nature of the test: Off-target binding affinity, adrenergic α1B.

The next test concerns the target T4, histamine H1 receptor (Homo sapiens, UniProt P35367).
T4 construct: expressed in transfected cells; host or cells: HEK293, transient
Nature of the test: Off-target binding affinity, histamine H1.

The target of the next test is T5, dopamine D2 receptor (Homo sapiens, UniProt P14416).
T5 construct: expressed in transfected cells; host or cells: HEK293, transient
Nature of the test: Off-target binding affinity, dopamine D2.

In a further test the target is T6, mouse 5-HT2A receptor (Mus musculus, UniProt P35363).
T6 construct: expressed in transfected cells; host or cells: HEK293, transient
In words: Binding affinity, HEK293 cells transiently expressing mouse 5-HT2A. The settings on record: for Ki: mouse, mean (SEM), read-out: Affinity Ki m5-HT2A.

Test [2] concerns the target T7, mouse 5-HT2C receptor (m5-HT2C-VNV) (Mus musculus, UniProt P34968, I157V/I161V).
T7 construct: expressed in transfected cells; host or cells: HEK293, transient
T7 sequence (P34968 33-459 I157V/I161V): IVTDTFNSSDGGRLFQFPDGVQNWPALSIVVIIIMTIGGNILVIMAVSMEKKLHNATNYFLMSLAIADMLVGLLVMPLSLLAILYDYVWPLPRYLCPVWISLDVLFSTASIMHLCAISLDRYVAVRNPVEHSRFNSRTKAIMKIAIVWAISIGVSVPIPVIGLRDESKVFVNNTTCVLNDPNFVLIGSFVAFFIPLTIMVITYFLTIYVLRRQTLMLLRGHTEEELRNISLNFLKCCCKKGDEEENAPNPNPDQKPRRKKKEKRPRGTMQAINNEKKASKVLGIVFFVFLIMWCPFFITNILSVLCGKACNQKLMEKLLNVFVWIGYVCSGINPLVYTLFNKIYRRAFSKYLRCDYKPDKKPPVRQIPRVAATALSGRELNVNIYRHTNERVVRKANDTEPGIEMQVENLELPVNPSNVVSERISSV
Nature of the test: Binding affinity, HEK293 cells transiently expressing mouse 5-HT2C. The following applies: for Ki: mouse m5-HT2C-VNV.

For the next test, the target named is T8, human 5-HT7 receptors (Homo sapiens, UniProt P34969).
T8 construct: expressed in transfected cells
In words: Functional assay, 5-HT7 Gs-cAMP signaling, relative to AS-19. It is filed as cell-based. The settings on record: for Functional activity at 5-HT7, in words / EC50: Gs-cAMP signaling.

The subject of a further test is C57BI/6J mice. Nature of the test: DOI-elicited head-twitch response (HTR) in C57BI/6J mice. The settings on record: for DOI-elicited HTR: C57BI/6J mice, 5-FPT up to 5.6 mg/kg, AS-19 10 mg/kg, DPAT 0.5 mg/kg. The text has this:
The 5-HT2A receptor is a predominant 5-HT receptor in the cortex, and serves important excitation modulation functions on glutamate pyramidal and GABA neurons.

Test [3] concerns the target T9, 5-HT2A (Homo sapiens, UniProt P28223). In words: Binding affinity, HEK293 cells transiently over-expressing human 5-HT2A. Further details: expressed in transfected cells; host or cells: HEK293, transient. The settings on record: for Ki: human, mean (SEM).
Test [4] addresses T10, 5-HT2B (Homo sapiens, UniProt P41595). Nature of the test: Binding affinity, HEK293 cells transiently over-expressing human 5-HT2B. Further details: expressed in transfected cells; host or cells: HEK293, transient. The following applies: mean (SEM).
Test [5] has as its target T9, 5-HT2A. In words: Functional assay at 5-HT2A, relative to 5-HT. Further details: expressed in transfected cells; host or cells: HEK293, transient. It is filed as cell-based. The following applies: for Functional activity at 5-HT2A, in words: no activation stated up to 100 μM.
The target in test [6] is T10, 5-HT2B. In words: Functional assay at 5-HT2B, relative to 5-HT. Further details: expressed in transfected cells; host or cells: HEK293, transient. It counts as cell-based. The settings on record: for Functional activity at 5-HT2B, in words: up to 100 μM.
The mark [7] stands for this setting: % of maximal response relative to AS-19, mean (SEM).

“Also recorded” adds a separate entry of the source.

T6 sequence (P35363 whole entry): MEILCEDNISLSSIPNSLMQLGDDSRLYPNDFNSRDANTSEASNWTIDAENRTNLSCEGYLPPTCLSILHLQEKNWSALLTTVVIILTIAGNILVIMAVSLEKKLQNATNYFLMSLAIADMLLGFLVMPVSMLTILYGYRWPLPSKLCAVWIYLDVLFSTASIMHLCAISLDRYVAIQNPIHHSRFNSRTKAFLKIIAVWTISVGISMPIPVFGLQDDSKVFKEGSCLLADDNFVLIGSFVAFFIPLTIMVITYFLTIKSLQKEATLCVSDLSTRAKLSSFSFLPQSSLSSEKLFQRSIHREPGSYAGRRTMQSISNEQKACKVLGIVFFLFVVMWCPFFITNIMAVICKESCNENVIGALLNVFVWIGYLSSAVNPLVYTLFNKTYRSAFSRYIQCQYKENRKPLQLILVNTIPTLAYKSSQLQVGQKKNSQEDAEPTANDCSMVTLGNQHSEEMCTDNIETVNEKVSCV
T9 sequence (P28223 whole entry): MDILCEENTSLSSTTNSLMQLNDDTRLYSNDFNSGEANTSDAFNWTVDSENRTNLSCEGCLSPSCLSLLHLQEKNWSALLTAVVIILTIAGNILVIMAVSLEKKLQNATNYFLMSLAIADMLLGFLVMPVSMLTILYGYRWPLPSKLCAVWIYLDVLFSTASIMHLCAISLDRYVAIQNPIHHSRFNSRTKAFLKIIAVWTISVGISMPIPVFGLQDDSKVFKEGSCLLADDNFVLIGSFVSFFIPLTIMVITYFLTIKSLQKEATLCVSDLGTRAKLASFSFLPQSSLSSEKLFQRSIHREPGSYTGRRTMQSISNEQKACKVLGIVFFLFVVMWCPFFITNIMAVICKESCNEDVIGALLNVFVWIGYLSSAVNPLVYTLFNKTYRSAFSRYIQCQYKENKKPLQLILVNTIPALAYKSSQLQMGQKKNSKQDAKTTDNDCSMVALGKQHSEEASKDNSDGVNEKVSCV
T10 sequence (P41595 whole entry): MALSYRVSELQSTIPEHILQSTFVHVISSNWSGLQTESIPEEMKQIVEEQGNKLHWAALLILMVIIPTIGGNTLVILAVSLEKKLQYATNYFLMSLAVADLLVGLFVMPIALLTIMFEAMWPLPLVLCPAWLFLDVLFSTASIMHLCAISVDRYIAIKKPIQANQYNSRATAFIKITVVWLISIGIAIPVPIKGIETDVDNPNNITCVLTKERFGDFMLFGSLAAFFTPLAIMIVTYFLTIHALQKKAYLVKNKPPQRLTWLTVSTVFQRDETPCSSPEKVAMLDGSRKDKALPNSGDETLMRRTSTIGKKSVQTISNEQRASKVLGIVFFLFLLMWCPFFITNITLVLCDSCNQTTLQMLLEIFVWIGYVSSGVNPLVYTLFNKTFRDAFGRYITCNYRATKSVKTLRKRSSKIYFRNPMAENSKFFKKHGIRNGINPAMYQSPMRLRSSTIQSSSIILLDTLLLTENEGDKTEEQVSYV
T1 sequence (P34969 1-445 isoform P34969-2): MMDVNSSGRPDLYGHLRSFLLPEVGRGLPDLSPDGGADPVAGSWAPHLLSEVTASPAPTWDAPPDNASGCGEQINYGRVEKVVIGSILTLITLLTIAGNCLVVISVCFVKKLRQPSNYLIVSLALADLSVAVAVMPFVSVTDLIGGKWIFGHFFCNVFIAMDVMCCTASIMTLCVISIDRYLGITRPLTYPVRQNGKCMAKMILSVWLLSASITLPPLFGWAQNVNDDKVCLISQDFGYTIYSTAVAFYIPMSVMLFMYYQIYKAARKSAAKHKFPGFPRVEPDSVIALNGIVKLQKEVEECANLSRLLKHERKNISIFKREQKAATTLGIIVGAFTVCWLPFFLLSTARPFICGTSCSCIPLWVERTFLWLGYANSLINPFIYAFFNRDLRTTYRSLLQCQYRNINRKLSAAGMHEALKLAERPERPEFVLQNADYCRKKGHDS
T8 sequence (P34969 1-445 isoform P34969-2): as above
T4 sequence (P35367 whole entry): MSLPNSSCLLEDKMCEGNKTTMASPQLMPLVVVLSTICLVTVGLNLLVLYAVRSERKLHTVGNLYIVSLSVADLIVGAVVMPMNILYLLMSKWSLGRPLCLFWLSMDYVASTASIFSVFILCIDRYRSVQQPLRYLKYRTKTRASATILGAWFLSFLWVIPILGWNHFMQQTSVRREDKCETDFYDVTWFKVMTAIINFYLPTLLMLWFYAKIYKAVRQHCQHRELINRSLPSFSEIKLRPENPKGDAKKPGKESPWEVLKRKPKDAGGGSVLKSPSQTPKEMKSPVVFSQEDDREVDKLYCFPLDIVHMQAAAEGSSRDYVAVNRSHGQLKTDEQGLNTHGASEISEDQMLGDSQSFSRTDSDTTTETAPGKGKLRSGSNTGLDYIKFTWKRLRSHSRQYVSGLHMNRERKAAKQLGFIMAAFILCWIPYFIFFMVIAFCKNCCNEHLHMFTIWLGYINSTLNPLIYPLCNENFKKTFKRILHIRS
T5 sequence (P14416 whole entry): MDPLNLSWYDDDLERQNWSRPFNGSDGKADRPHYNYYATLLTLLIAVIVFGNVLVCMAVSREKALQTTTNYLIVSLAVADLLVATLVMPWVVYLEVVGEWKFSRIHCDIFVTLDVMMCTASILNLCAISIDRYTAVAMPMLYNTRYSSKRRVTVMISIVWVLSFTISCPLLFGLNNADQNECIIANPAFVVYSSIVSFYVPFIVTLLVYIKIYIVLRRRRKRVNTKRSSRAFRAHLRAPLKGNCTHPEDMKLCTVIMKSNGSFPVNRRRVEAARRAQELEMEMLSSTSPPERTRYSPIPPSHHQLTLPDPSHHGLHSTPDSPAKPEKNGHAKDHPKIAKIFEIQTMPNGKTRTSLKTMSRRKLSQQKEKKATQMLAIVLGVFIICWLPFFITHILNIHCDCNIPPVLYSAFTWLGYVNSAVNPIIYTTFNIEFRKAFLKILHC

For `CN(C)C1CCc2c(cccc2-c2ccccc2F)C1` (single isomer, unassigned; (+)) [(+)-5-FPT, 5-(2′-fluorophenyl)-N,N-dimethyl-1,2,3,4-tetrahydronaphthalen-2-amine], the Ki in test [1] was 5.8 nM; at adrenergic α1A receptor it was over 10000 nM; at adrenergic α1B receptor it was over 10000 nM; at histamine H1 receptor, over 1000 nM; at dopamine D2 receptor, over 1000 nM; at mouse 5-HT2A receptor it was 632 nM. Further, the Ki in test [2] (mean (SEM)) is 0.644 µM; at 5-HT2A [3] it was 886 nM; on 5-HT2B [4], 60 nM. The “5-HT7 affinity, (+)-enantiomer more potent than (−)-enantiomer” value in [1] (ratio of Ki values) was “about 80 times”. The “Mouse 5-HT2C versus human 5-HT2C receptor affinity” value in test [2] is recorded as about 2.5 times. The Emax at human 5-HT7 receptors (setting [7]) came out at 33%; on 5-HT2A [5] (% of maximal response relative to 5-HT, mean (SEM)) it was 39%. Moreover, the “Functional activity at 5-HT7, in words” value at human 5-HT7 receptors was “partial agonist”. In addition, the EC50 on human 5-HT7 receptors (mean (SEM)) was found to be 34 nM; on 5-HT2A [5] (mean (SEM)) it was 3530 nM. In addition, the “DOI-elicited HTR, compound given 120 min (2 hrs) before testing” value with C57BI/6J mice (5.6 mg/kg, DOI 1 mg/kg) is “remained significant; also recorded: retains efficacy”. Moreover, in the test on C57BI/6J mice (5.6 mg/kg, DOI 1 mg/kg), the “DOI-elicited HTR, compound given 180 min (3 hrs) before testing” value is given as “did not block the DOI HTR”. In addition, in the test on C57BI/6J mice (DOI 1 mg/kg), the “DOI-elicited HTR” value is given as “dose-dependently attenuated the DOI-elicited HTR; also recorded: significantly attenuated the DOI HTR; also recorded: dose-dependently blocks”. For the same compound, in the test with C57BI/6J mice (oral gavage 3 mg/kg 10 min prior to subcutaneous 1 mg/kg DOI), the “DOI-elicited HTR after oral administration” value is reported as “significantly attenuated the DOI HTR; also recorded: attenuates the HTR”. The “Affinity at 5-HT2A receptors, in words” value on 5-HT2A [3] is on record as “very low”. Moreover, on 5-HT2A [5], the “Functional activity at 5-HT2A, in words” value is reported as “very low potency, partial agonist”. For the same compound, the “EC50 5-HT2B” value on 5-HT2B [6] (Inactive = no activation up to 100 μM) is recorded as “Inactive”. Further, at 5-HT2B [6] (relative to 5-HT, Inactive = no activation up to 100 μM), the “EMAX 5-HT2B” value is listed as “Inactive”. At 5-HT2B [6], the “Functional activity at 5-HT2B, in words” value is “devoid of 5-HT2B activity”.

On to `CN(C)C1CCc2c(cccc2-c2ccccc2F)C1` (single isomer, unassigned; (-)) [(−)-5-FPT, 5-(2′-fluorophenyl)-N,N-dimethyl-1,2,3,4-tetrahydronaphthalen-2-amine], for which the Ki in test [1] was 460 nM; at adrenergic α1A receptor, over 10000 nM; at adrenergic α1B receptor it was over 10000 nM; at histamine H1 receptor, over 1000 nM; at dopamine D2 receptor, over 1000 nM; on mouse 5-HT2A receptor it was 147 nM. Further, the results for the Ki (in test [2] (bound given in μM); on 5-HT2A [3]; at 5-HT2B [4]) were over 1 µM, 119 nM and 684 nM, respectively. Further, on mouse 5-HT2A receptor, the “Higher affinity than (+)-5-FPT at mouse 5-HT2A receptors” value is about 4 fold. For the same compound, on human 5-HT7 receptors (setting [7]), the “EMAX 5-HT7” value came to 29%. The “Functional activity at 5-HT7, in words” value at human 5-HT7 receptors is listed as “partial agonism; also recorded: low-potency”. Further, it took 378 nM to reach a half-maximal effect at human 5-HT7 receptors (mean (SEM)) (EC50). Further, the “5-HT7 functional potency, (−)-enantiomer less potent than (+)-isomer” value at human 5-HT7 receptors (ratio of EC50 values) is listed as “about 11 times”. Moreover, the “DOI-elicited HTR” value with C57BI/6J mice (DOI 1 mg/kg) was “substantially less efficacious than (+)-5-FPT”. The “Higher affinity than (+)-5-FPT at human 5-HT2A receptors” value on 5-HT2A [3] is on record as about 8 fold. Further, the “Functional activity at 5-HT2A, in words” value on 5-HT2A [5] is reported as “did not activate”. The “Functional activity at 5-HT2B, in words” value at 5-HT2B [6] is listed as “did not activate”.

What is called Ki is a dissociation constant, usually derived from enzyme kinetics or from competition with a known ligand. What is called Emax is the size of the effect at its maximum, as opposed to the concentration needed. Broadly, the EC50 is the midpoint of the concentration-response curve. Low readings indicate an effect from little substance, high ones a need for much substance.
